Consider 27 molecules from patent US4370323A, “2-Cyanoaziridinyl-(1)-2-substituted-aziridinyl-(1)-methanes” (Boehringer Mannheim GmbH, priority 1976, dated 1983).

SMILES strings stand for the structures.

The subject of one data set is leucocyte number. Description: Alteration of the leucocyte number in rats. Type of data set: in vivo, female Sprague-Dawley rats. Particulars: fourth day, ten rats; for response vs control in vivo at 50 mg/kg / response vs control in vivo at 200 mg/kg: Rattus norvegicus, Leucocyte, po, 96 h, read-out: proportion of the average leucocyte number of the test group to that of the control group; for proportion of the average leucocyte number of the test group to that of the control group: oral. How it is done:
(a) Alteration of the leucocyte number
The active substance was dissolved in each case in 10 ml of a 1% methyl-hydroxyethyl cellulose solution per kg of body weight and orally applied by means of a neck tube to ten fasting female Sprague-Dawley rats in each case. On the fourth day, blood was taken retroorbitally and the leucocyte number was determined by means of a coult counter.

For the next data set, the system named is DC-Carcino-Sarcoma. Nature of the data set: Cancerostatic effect: DC-Carcino-Sarcoma transplanted in rats. Type of data set: in vivo, female Sprague-Dawley rats. Particulars: for Tumor weight: three days prior to tumor application, day 7, average of 20 animals; for Difference (tumor weight): vs control. How it is done:
(§1) Ready-to-be-transplanted tumors of various kinds were taken from freshly killed rats, comminuted coarsely and pulverized with addition of 8 ml of physiological sodium chloride solution. Female Sprague-Dawley rats weighing 80 to 100 g were used as test animals. The respective tumor cell suspension was applied subfacially to the animals in an amount of 0.5 ml per animal under sterile conditions in the neck area. On the seventh day after the transplantation the animals were killed, the tumors taken out and weighed. The substances according to the instant invention were in each case applied orally three days prior to the tumor application by means of a throat tube (in 10 ml 1% hydrous methylhydroxylethyl cellulose solution per kg of body weight).

In a further data set the test system is Walker-Carcinoma 256. Nature of the data set: Cancerostatic effect: Walker-Carcinoma 256 transplanted in rats. Type of data set: in vivo, female Sprague-Dawley rats. Particulars: for Tumor weight: three days prior to tumor application, day 7, average of 20 animals; for Difference (tumor weight): vs control. How it is done:
as §1

For data set [1], the system named is leukocytes, lymphocytes, erythrocytes, antibody-forming spleen cells. To be noted: intravenous; cited from earlier work.
The conditions of data set [2]: prior art compound, cited from earlier work.

On to `N#CC1CN1C(c1ccco1)N1CC1C(N)=O` (stereo not shown) [29 d], for which the response vs control in vivo at 50 mg/kg in the data set with leucocyte number (50 mg per kg body weight) was determined as 100%. Besides, in the data set on leucocyte number (200 mg per kg body weight), the response vs control in vivo at 200 mg/kg was determined as 130%.
For the molecule `CC1CCC(N2CC2C#N)(N2CC2C(N)=O)CC1` (stereo not shown) [Example 19, 1-[2-Cyanoaziridinyl-(1)]-1-[2-carbamoylaziridinyl-(1)]-4-methylcyclohexane], in the data set on leucocyte number (50 mg per kg body weight), the response vs control in vivo at 50 mg/kg was found to be 100%. The response vs control in vivo at 200 mg/kg with leucocyte number (200 mg per kg body weight) was determined as 136%.
Take `N#CC1CN1C1(N2CC2C(N)=O)CCCCC1` (stereo not shown) [Example 16, 1-[2-Cyanoaziridinyl-(1)]-1-[2-carbamoylaziridinyl-(1)]-cyclohexane]: the entries for the “proportion of the average leucocyte number of the test group to that of the control group” value (shortened to “proportion”) in the data set with leucocyte number (50 mg per kg body weight) and in the data set with leucocyte number (200 mg per kg body weight) were 1,30 and 1,50, respectively.
Take `N#CC1CN1C(c1cccs1)N1CC1C(N)=O` (stereo not shown) [29 e]: the response vs control in vivo at 50 mg/kg with leucocyte number (50 mg per kg body weight) was found to be 115%. The response vs control in vivo at 200 mg/kg in the data set with leucocyte number (200 mg per kg body weight) turned out to be 150%.
Consider `CCOC(=O)C(C)(N1CC1C#N)N1CC1C(N)=O` (stereo not drawn) [Example 6, Ethyl α-[2-cyanoaziridinyl-(1)]-α-[2-carbamoylaziridinyl-(1)]-propionate], for which, in the data set with leucocyte number (50 mg per kg body weight), the response vs control in vivo at 50 mg/kg turned out to be 115%. In the data set with leucocyte number (200 mg per kg body weight), the response vs control in vivo at 200 mg/kg came to 165%.
`N#CC1CN1C1(N2CC2C(N)=O)CCOCC1` (stereo not shown) [28 a]: the response vs control in vivo at 50 mg/kg with leucocyte number (50 mg per kg body weight) came to 109%. Besides, the response vs control in vivo at 200 mg/kg with leucocyte number (200 mg per kg body weight) was determined as 130%.
Turning to `N#CC1CN1C1(N2CC2C#N)CCCCC1` (stereo not shown) [Example 32, 1,1-bis-[2-cyanoaziridinyl-(1)]-cyclohexane], the response vs control in vivo at 50 mg/kg with leucocyte number (50 mg per kg body weight) was found to be 150%. Further, the response vs control in vivo at 200 mg/kg in the data set with leucocyte number (200 mg per kg body weight) was determined as 150%.
With `COC(=O)c1ccc(C(N2CC2C#N)N2CC2C(N)=O)cc1` (stereo not shown) [30 d], in the data set on leucocyte number (50 mg per kg body weight), the response vs control in vivo at 50 mg/kg was determined as 108%. In addition, the response vs control in vivo at 200 mg/kg in the data set with leucocyte number (200 mg per kg body weight) turned out to be 150%.
The corresponding values for `COC(=O)C1CCC(N2CC2C#N)(N2CC2C(N)=O)CC1` (stereo not shown) [Example 20, 1-[2-Cyanoaziridinyl-(1)]-1-[2-carbamoylaziridinyl-(1)]-4-methoxycarbonylcyclohexane] are 123% and 151%.
Take `N#CC1CN1C(c1ccccc1)(c1ccccc1)N1CC1C(N)=O` (stereo not drawn) [Example 26, α-[2-Cyanoaziridinyl-(1)]-α-[2-carbamoylaziridinyl-(1)]-diphenylmethane]: the response vs control in vivo at 50 mg/kg with leucocyte number (50 mg per kg body weight) amounted to 125%. Also, the response vs control in vivo at 200 mg/kg in the data set on leucocyte number (200 mg per kg body weight) came out at 120%.
Take `CC(N1CC1C#N)N1CC1C(N)=O` (stereo not shown) [Example 27, 1-[2-Cyanoaziridinyl-(1)]-1-[2-carbamoylaziridinyl-(1)]-ethane]: in the data set with leucocyte number (50 mg per kg body weight), the response vs control in vivo at 50 mg/kg was 117%. For the same molecule, in the data set on leucocyte number (200 mg per kg body weight), the response vs control in vivo at 200 mg/kg stood at 153%.
Regarding `N#CC1CN1C(c1ccc(Cl)cc1)N1CC1C(N)=O` (stereo not shown) [29 b], the response vs control in vivo at 50 mg/kg in the data set with leucocyte number (50 mg per kg body weight) worked out at 100%. Moreover, the response vs control in vivo at 200 mg/kg in the data set with leucocyte number (200 mg per kg body weight) was determined as 140%.
For `N#CC1CN1C1(N2CC2C(N)=O)CCCSC1` (stereo not shown) [Example 28, 3-[2-Cyanoaziridinyl-(1)]-3-[2-carbamoylaziridinyl-(1)]-tetrahydrothiapyran], in that order: 126% and 180%.
The corresponding values for `CC(C1CC1)(N1CC1C#N)N1CC1C(N)=O` (stereo not shown) [Example 9, 1-[2-cyanoaziridinyl-(1)]-1-[2-carbamoylaziridinyl-(1)]-1-cyclopropylethane] are 132% and 182%.
On to `COc1cccc(C(N2CC2C#N)N2CC2C(N)=O)c1` (stereo not shown) [30 b], for which, in the data set on leucocyte number (50 mg per kg body weight), the response vs control in vivo at 50 mg/kg was found to be 122%. Also, the response vs control in vivo at 200 mg/kg in the data set with leucocyte number (200 mg per kg body weight) is 131%.
With `CC(C)(N1CC1C#N)N1CC1C(N)=O` (stereo not shown) [Example 3, 2-[2-Cyanoaziridinyl-(1)]-2-[2-carbamoylaziridinyl-(1)]-propane], the “proportion” value is 1,42 with leucocyte number (50 mg per kg body weight) and 1,82 with leucocyte number (200 mg per kg body weight).
As to `N#CC1CN1C1(N2CC2C(N)=O)CCCCC1` (stereo not shown) [Example 10, 1-[2-Cyanoaziridinyl-(1)]-1-[2-carbamoylaziridinyl-(1)]cyclohexane], the Tumor weight is listed as 11.0 g in the data set on DC-Carcino-Sarcoma (50 mg/kg oral); 10.9 g with DC-Carcino-Sarcoma (100 mg/kg oral); 7.9 g in the data set with Walker-Carcinoma 256 (10.0 mg/kg oral); 5.0 g in the data set on Walker-Carcinoma 256 (50.0 mg/kg oral); 4.5 g in the data set with Walker-Carcinoma 256 (100.0 mg/kg oral). Also, the “Difference (tumor weight)” value with DC-Carcino-Sarcoma (50 mg/kg oral) was -38.5%; in the data set on DC-Carcino-Sarcoma (100 mg/kg oral) it was -40.0%; in the data set with Walker-Carcinoma 256 (50.0 mg/kg oral), -41.7%; with Walker-Carcinoma 256 (100.0 mg/kg oral), -46.9%. Further, the “proportion” value is given as 0,92 in the data set on leucocyte number (50 mg per kg body weight) and 2,06 in the data set on leucocyte number (200 mg per kg body weight).
As to `CCCC(N1CC1C#N)N1CC1C(N)=O` (stereo not shown) [27 e], the response vs control in vivo at 50 mg/kg in the data set on leucocyte number (50 mg per kg body weight) came to 130%. In addition, the response vs control in vivo at 200 mg/kg in the data set on leucocyte number (200 mg per kg body weight) was determined as 136%.
Consider `N#CC1CN1C(C=Cc1ccccc1)N1CC1C(N)=O` (stereo not shown) [Example 31, 3-[2-cyanoaziridinyl-(1)]-3-[2-carbamoylaziridinyl-(1)]-1-phenylprop-1-ene], for which the response vs control in vivo at 50 mg/kg in the data set on leucocyte number (50 mg per kg body weight) is 113%. In the data set with leucocyte number (200 mg per kg body weight), the response vs control in vivo at 200 mg/kg came out at 141%.
Take `CC(C)C(N1CC1C#N)N1CC1C(N)=O` (stereo not shown) [27 a]: the response vs control in vivo at 50 mg/kg in the data set with leucocyte number (50 mg per kg body weight) was found to be 119%. Also, the response vs control in vivo at 200 mg/kg in the data set on leucocyte number (200 mg per kg body weight) amounted to 166%.
For `N#CC1CN1C(C1CCCCC1)N1CC1C(N)=O` (stereo not shown) [28 b], in that order: 120% and 155%.
Consider `CCC(N1CC1C#N)N1CC1C(N)=O` (stereo not shown) [27 d], for which the response vs control in vivo at 50 mg/kg in the data set with leucocyte number (50 mg per kg body weight) is 140%. Besides, the response vs control in vivo at 200 mg/kg in the data set on leucocyte number (200 mg per kg body weight) is 178%.
For `N#CC1CN1C(c1ccc(O)cc1)N1CC1C(N)=O` (stereo not shown) [30 c], in that order: 170% and 221%.
For `N#CC1CN1C1CCCC(N2CC2C#N)(N2CC2C(N)=O)C1` (stereo not shown) [Example 21, 1,3-Bis-[2-cyanoaziridinyl-(1)]-1-[2-carbamoylaziridinyl-(1)]-cyclohexane], in that order: 111% and 130%.
In the case of `N#CC1CN1C(N)=O` (stereo not shown) [1-carboxamido-2-cyanoaziridine], in data set [1], the antibody-forming spleen cells result is “increase of the antibody-forming spleen cells”; the cytostatic action result is “cytostatic action”; the number of erythrocytes result is reported as “substantially unchanged”; the “number of leukocytes and lymphocytes” value is on record as “marked increase”. In data set [2] (buffered aqueous solution), the “keeping time in buffered aqueous solution” value is reported as “can only be kept for a short time”. Further, in data set [2], the acid stability result was “acid lability”.
For `Cc1ccccc1C(N1CC1C#N)N1CC1C(N)=O` (stereo not shown) [30 a], the response vs control in vivo at 50 mg/kg with leucocyte number (50 mg per kg body weight) came to 140%. Further, the response vs control in vivo at 200 mg/kg in the data set with leucocyte number (200 mg per kg body weight) came to 134%.
The corresponding values for `N#CC1CN1C(c1cccc([N+](=O)[O-])c1)N1CC1C(N)=O` (stereo not shown) [29 f] are 109% and 126%.
